Test results taken from patent US10981940B2, “Trityl protecting agent” (SEKISUI MEDICAL CO., LTD., priority 2016, dated 2021).
≈ marks a conversion by molar mass, not a printed value. Where a SMILES comes first, the peptide text is derived from it.

Assay: Solubility in CPME (cyclopentyl methyl ether), dissolved to saturation at 25° C.
Assay type: physicochemical
Details: dissolved to saturation in CPME (cyclopentyl methyl ether) at 25° C.
Experimental: Peptide used as a model: H-Phe-Leu-Gly-OH
H-Phe-Leu-Gly-OH and H-Phe-Leu-Gly-O-(TIPS2-4,4′-diClTrt) were synthesized, and the respective compounds were dissolved to saturation in CPME (cyclopentyl methyl ether) at 25° C. Thus, the solubilities were measured.

CC(C)C[C@H](NC(=O)[C@@H](N)Cc1ccccc1)C(=O)NCC(=O)OC(c1ccc(Cl)cc1)(c1ccc(Cl)cc1)c1cc(OCCCCCCCCCCCO[Si](C(C)C)(C(C)C)C(C)C)cc(OCCCCCCCCCCCO[Si](C(C)C)(C(C)C)C(C)C)c1 [H-Phe-Leu-Gly-O-(TIPS2-4,4′-diClTrt)]
solubility: ≥ 1030 mM

CC(C)C[C@H](NC(=O)[C@@H](N)Cc1ccccc1)C(=O)NCC(=O)O [H-Phe-Leu-Gly-OH] (H-Phe-Leu-Gly-OH)
solubility: 0.9 mM (≈ 0.302 mg/mL)
